From BindingDB's records for doi:10.1021/jm00044a007 (Research Triangle Institute, 1994) come the findings set out here.

The assay addresses Sodium-dependent dopamine transporter (Rattus norvegicus, UniProt P23977). As to the kind of experiment: Concentration required to inhibit 50% of radioligand binding ([3H]WIN-35428) to the dopamine (DA) transporter in rat.

The structures appear in SMILES notation.

Chain of Sodium-dependent dopamine transporter (P23977 whole entry): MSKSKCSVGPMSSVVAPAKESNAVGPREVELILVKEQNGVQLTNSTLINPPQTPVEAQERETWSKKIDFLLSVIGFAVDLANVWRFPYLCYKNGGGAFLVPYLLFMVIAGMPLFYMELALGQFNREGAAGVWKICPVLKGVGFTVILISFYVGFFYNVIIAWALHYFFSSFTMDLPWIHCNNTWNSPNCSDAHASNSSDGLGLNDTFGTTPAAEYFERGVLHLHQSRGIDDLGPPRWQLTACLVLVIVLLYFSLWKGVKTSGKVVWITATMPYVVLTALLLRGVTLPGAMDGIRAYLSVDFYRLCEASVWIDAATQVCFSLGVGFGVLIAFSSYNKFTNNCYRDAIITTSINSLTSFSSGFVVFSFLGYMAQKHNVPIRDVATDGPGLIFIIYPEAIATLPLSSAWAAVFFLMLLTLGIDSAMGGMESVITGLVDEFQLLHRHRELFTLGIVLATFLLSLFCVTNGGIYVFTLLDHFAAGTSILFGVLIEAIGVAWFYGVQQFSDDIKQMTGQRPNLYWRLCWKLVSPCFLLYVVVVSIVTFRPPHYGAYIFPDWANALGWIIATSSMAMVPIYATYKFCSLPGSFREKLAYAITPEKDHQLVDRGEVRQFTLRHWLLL

The term IC50 denotes the concentration needed to halve the response being measured. In turn, `COC(=O)C1C2CCC(C[C@@H]1c1cc[c]([Sn]([CH3])([CH3])[CH3])cc1)N2C` (stereo partly drawn) [(3S,8R)-8-Methyl-3-(4-trimethylstannanyl-phenyl)-8-aza-bicyclo[3.2.1]octane-2-carboxylic acid methyl ester] gave an IC50 of 0.144 µM.
